Measurements taken from patent publication US6057447A, “Quinoline sulfide derivatives” (Zenyaku Kogyo Kabushiki Kaisha, priority 1996, dated 2000).
Values after ≈ are worked out from the molar mass of the structure shown.

How the values were obtained:
E. coli NIHJ JC-2 = assay: Antibacterial Test 2: MIC, agar dilution method (aerobic MIC method); assay type: cell-based; conditions: Escherichia coli, NIHJJC2
Protocol: (§1) Then, tested were antibacterial activities of the typical compounds of the present invention against gram-positive and -negative bacteria other than Hp. MICs of the typical compounds of the present invention were determined in substantial accordance with agar dilution method (aerobic MIC method) based on standard method of the Japan Society Chemotherapy.
(§2) The respective test compound were dissolved in dimethyl sulfoxide (DMSO) and serially diluted twofold to prepare solutions of the compounds with concentration of 0.05-100 μg/ml. The solutions of the compounds were respectively added to sensitive-disk agar medium-N (manufactured by NISSUI SEIYAKU) to prepare agar plates for determination.
(§3) The below-mentioned strains freezingly conserved at -135° C. were thawed in a warm bath (40° C.), cultured in a sensitivity-determining bouillon at 37° C. for 18-20 hours, and then diluted with the above-mentioned medium to prepare about 1.0×10^6 CFU/ml of bacterial suspension.
(§4) Inoculation was made by 5 μl by multi-inoculator (manufactured by SAKUMA SEISAKUSHO). Culturing was made under the same conditions as those of the pre-culturing and the MIC (unit: μg/ml) was determined by observing whether the bacteria grew or not.

E. faecalis RIMD 3336001 = assay: as above; assay type: cell-based; conditions: Enterococcus faecalis, RIMD3336001
Protocol: as §1, §2, §3, §4

B. subtilis PCI 219 = assay: as above; assay type: cell-based; conditions: Bacillus subtilis, PCI219
Protocol: as §1, §2, §3, §4

K. pneumoniae PCI 602 = assay: as above; assay type: cell-based; conditions: Klebsiella pneumoniae, PCI602
Protocol: as §1, §2, §3, §4

M. luteus ATCC 9341 = assay: as above; assay type: cell-based; conditions: Micrococcus luteus, ATCC9341
Protocol: as §1, §2, §3, §4

S. aureus FDA 209P = assay: as above; assay type: cell-based; conditions: Staphylococcus aureus, FDA209P
Protocol: as §1, §2, §3, §4

P. aeruginosa IFO 3445 = assay: as above; assay type: cell-based; conditions: Pseudomonas aeruginosa, IFO3445
Protocol: as §1, §2, §3, §4

[1] = test system: Helicobacter pylori standard strain ATCC 43526 (NCTC 11916); assay: Antibacterial Test 1: MIC against Helicobacter pylori, agar plate dilution method (anaerobic MIC method); assay type: cell-based; conditions: 72 h, Hp ATCC 43526, agar plate dilution, 37° C., 3 days
[2] = test system: seven gram-positive or -negative strains; assay: Antibacterial Test 2: MIC against each of the seven strains; assay type: cell-based; conditions: each of S. aureus, M. luteus, E. faecalis, B. subtilis, E. coli, K. pneumoniae, P. aeruginosa; read-out: MIC of each of the above-mentioned seven strains
Protocol: as §1, §2, §3, §4

peptic ulcer = conditions: up to; cited from earlier work

SMILES	MIC (E. coli NIHJ JC-2) [µg/mL]	MIC (E. faecalis RIMD 3336001) [µg/mL]	MIC (B. subtilis PCI 219) [µg/mL]	MIC (K. pneumoniae PCI 602) [µg/mL]	MIC (M. luteus ATCC 9341) [µg/mL]	MIC (S. aureus FDA 209P) [µg/mL]	MIC (P. aeruginosa IFO 3445) [µg/mL]	MIC [1] [µg/mL]	MIC [2] [µg/mL]	cure rate (peptic ulcer)
O=C(CSc1ccnc2ccccc12)c1ccc(OCc2ccccc2)cc1 [Compound 1, 4-[2-(4-Benzyloxyphenyl)-2-oxoethylthio]quinoline]	> 100	> 100	> 100	> 100	> 100	> 100	> 100	0.05 (≈ 0.13 µM)		
O=C(CSc1ccnc2ccccc12)c1ccc2ccccc2c1 [Compound 2, 4-[2-(2-Naphtyl)-2-oxoethylthio]quinoline]	> 100	> 100	> 100	> 100	> 100	> 100	> 100	0.2 (≈ 0.607 µM)		
CC(C)(C)c1ccc(C(=O)CSc2ccnc3ccccc23)cc1 [Compound 5, 4-[2-(4-tert-Butylphenyl)-2-oxoethylthio]quinoline]	> 100	> 100	> 100	> 100	> 100	> 100	> 100	0.025 (≈ 0.0745 µM)		
O=C(CSc1ccnc2ccccc12)c1ccc(N2CCOCC2)c(Br)c1 [Compound 10, 4-[2-(3-Bromo-4-morpholinophenyl)-2-oxoethylthio]-quinoline]	> 100	> 100	> 100	> 100	> 100	> 100	> 100	0.0031 (≈ 0.00699 µM)		
O=C(CSc1ccnc2ccccc12)c1ccc(N2CCOCC2)cc1 [Compound 11, 4-[2-(4-Morpholinophenyl)-2-oxoethylthio]quinoline]	> 100	> 100	> 100	> 100	> 100	> 100	> 100	0.0125 (≈ 0.0343 µM)		
O=C(CSc1ccnc2ccccc12)c1ccc(N2CCCCC2)cc1 [Compound 22, 4-[2-(4-Piperidinophenyl)-2-oxoethylthio]quinoline]	> 100	> 100	> 100	> 100	> 100	> 100	> 100	0.0062 (≈ 0.0171 µM)		
O=C(CSc1ccnc2ccccc12)c1ccc(NCc2ccccc2)cc1 [Compound 23, 4-[2-(4-Benzylaminophenyl)-2-oxoethylthio]quinoline]	> 100	> 100	> 100	> 100	> 100	> 100	> 100	0.025 (≈ 0.065 µM)		
CN(C)c1ccc(C(=O)CSc2ccnc3ccccc23)cc1 [Compound 26, 4-[2-(4-Dimethylaminophenyl)-2-oxoethylthio]quinoline]	> 100	> 100	> 100	> 100	> 100	> 100	> 100	0.1 (≈ 0.31 µM)		
CN(C)c1ccc(CCSc2ccnc3ccccc23)cc1 [Compound 27, 4-[2-(4-Dimethylaminophenyl)ethylthio]quinoline]	> 100	> 100	> 100	> 100	> 100	50 (≈ 162 µM)	> 100	0.1 (≈ 0.324 µM)		
CSc1ccc2c(SCc3ccc(N(C)C)cc3)ccnc2c1 [Compound 31, 4-(4-Dimethylaminobenzylthio)-7-methylthioquinoline]	> 100	> 100	> 100	> 100	> 100	> 100	> 100	0.1 (≈ 0.294 µM)		
CSc1ccc2c(SCc3ccc(N)cc3)ccnc2c1 [Compound 34, 4-(4-Aminobenzylthio)-7-methylthioquinoline]	> 100	> 100	> 100	> 100	> 100	> 100	> 100	0.2 (≈ 0.64 µM)		
CC(C)(C)OC(=O)N1CCN(c2ccc(C(=O)CSc3ccnc4ccccc34)cc2)CC1 [Compound 49, 4-[2-[4-(4-tert-Butoxycarbonyl-1-piperazinyl)phenyl]-2-oxoethylthio]quinoline]	> 100	> 100	> 100	> 100	> 100	> 100	> 100	0.0008 (≈ 0.00173 µM)		
CC(C)(C)OC(=O)N1CCC(Nc2ccc(C(=O)CSc3ccnc4ccccc34)cc2Br)C1 (centres unmarked) [Compound 65, 4-[2-[3-Bromo-4-(1-tert-butoxycarbonyl-3-pyrrolidinylamino)phenyl]-2-oxoethylthio]quinoline]								0.0031 (≈ 0.00571 µM)	> 100	
CC(C)(C)OC(=O)N1CCCN(c2ccc(C(=O)CSc3ccnc4ccccc34)cc2)CC1 [Compound 76, 4-[2-[4-(4-tert-Butoxycarbonyl-1-homopiperazinyl)phenyl]-2-oxoethylthio]quinoline]								0.0062 (≈ 0.013 µM)		
O=C(CSc1ccnc2ccccc12)c1ccc(N2CCN(C(=O)OCc3ccccc3)CC2)cc1 [Compound 78, 4-[2-[4-(4-Benzyloxycarbonyl-1-piperazinyl)phenyl)-2-oxoethylthio]quinoline]								0.0031 (≈ 0.00623 µM)	> 100	
CC(C)[C@H](NC(=O)OC(C)(C)C)C(=O)N1CCN(c2ccc(C(=O)CSc3ccnc4ccccc34)cc2)CC1 [Compound 79, 4-[2-[4-[4-(N-tert-Butoxycarbonylvalyl)-1-piperazinyl]-phenyl]-2-oxoethylthio]quinoline]								0.0016 (≈ 0.00284 µM)	> 100	
O=C(CSc1ccnc2ccccc12)c1ccc(N2CCN(C(=O)OCC(Cl)(Cl)Cl)CC2)cc1 [Compound 81, 4-[2-[4-[4-(2,2,2-Trichloroethoxycarbonyl)-1-piperazinyl]phenyl]-2-oxoethylthio]quinoline]								0.0016 (≈ 0.00297 µM)	> 100	
CCOC(=O)N1CCN(c2ccc(C(=O)CSc3ccnc4ccccc34)cc2)CC1 [Compound 82, 4-[2-[4-(4-Ethoxycarbonyl-1-piperazinyl)phenyl]-2-oxoethylthio]quinoline]								0.0008 (≈ 0.00184 µM)		
C=CCOC(=O)N1CCN(c2ccc(C(=O)CSc3ccnc4ccccc34)cc2)CC1 [Compound 83, 4-[2-[4-(4-Allyloxycarbonyl-1-piperazinyl)phenyl]-2-oxoethylthio]guinoline]								0.0008 (≈ 0.00179 µM)		
CN(C)S(=O)(=O)N1CCN(c2ccc(C(=O)CSc3ccnc4ccccc34)cc2)CC1 [Compound 84, 4-[2-(4-(4-Dimethylsulfamoyl-1-piperazinyl)phenyl]-2-oxoethylthio]quinoline]								0.0016 (≈ 0.0034 µM)		
CC(C)(C)NC(=O)N1CCN(c2ccc(C(=O)CSc3ccnc4ccccc34)cc2)CC1 [Compound 85, 4-[2-[4-[4-(N-tert-Butylcarbamoyl)-1-piperazinyl]phenyl]-2-oxoethylthio]quinoline]								0.0031 (≈ 0.0067 µM)		
CS(=O)(=O)N1CCN(c2ccc(C(=O)CSc3ccnc4ccccc34)cc2)CC1 [Compound 86, 4-[2-[4-(4-Methanesulfonyl-1-piperazinyl)phenyl]-2-oxoethylthio]quinoline]								0.0031 (≈ 0.00702 µM)		
CC(C)(C)OC(=O)N1CCN(c2ccc(C(O)CSc3ccnc4ccccc34)cc2)CC1 (centres unmarked) [Compound 87, 4-[2-[4-(4-tert-Butoxycarbonyl-1-piperazinyl)phenyl]-2-hydroxyethylthio]quinoline]								0.0008 (≈ 0.00172 µM)		
CC1(C)S[C@@H]2[C@H](NC(=O)[C@H](N)c3ccc(O)cc3)C(=O)N2[C@H]1C(=O)O [amoxicillin, reference compound]	3.13 (≈ 8.57 µM)	0.2 (≈ 0.547 µM)	0.2 (≈ 0.547 µM)	50 (≈ 137 µM)	≤ 0.05	0.1 (≈ 0.274 µM)	> 100	0.05 (≈ 0.137 µM)		
CN/C(=N/CCSCc1nc[nH]c1C)NC#N [cimetidine]										80-90%
CC[C@H]1OC(=O)[C@H](C)[C@@H](O[C@H]2C[C@@](C)(OC)[C@@H](O)[C@H](C)O2)[C@H](C)[C@@H](O[C@@H]2O[C@H](C)C[C@H](N(C)C)[C@H]2O)[C@](C)(OC)C[C@@H](C)C(=O)[C@H](C)[C@@H](O)[C@]1(C)O [clarithromycin, reference compound]	100 (≈ 134 µM)	0.39 (≈ 0.521 µM)	0.2 (≈ 0.267 µM)	6.25 (≈ 8.36 µM)	≤ 0.05	0.1 (≈ 0.134 µM)	> 100	0.025 (≈ 0.0334 µM)		
Cc1c(OCC(F)(F)F)ccnc1C[S+]([O-])c1nc2ccccc2[nH]1 (centres unmarked) [lansoprazole, reference compound]	> 100	> 100	> 100	> 100	> 100	> 100	> 100	12.5 (≈ 33.8 µM)		
COc1ccc2[nH]c([S+]([O-])Cc3ncc(C)c(OC)c3C)nc2c1 (centres unmarked) [omeprazole]										80-90%
